The values below come from PubChem BioAssay AID652276 (Vanderbilt Specialized Chemistry Center, 2013).

Calls of active or inactive are those of the source. How the calls were made is not given here.

Usually IC50 stands for the concentration that inhibits the measured activity by half.

This test concerns the target Activin receptor type-1 (Homo sapiens) (UniProt Q04771). Description: ACVR1 enzymatic activity inhibition – biochemical, secondary in vitro, SAR follow-up (AID 652276). As to conditions: in vitro ALK2 kinase assay; for remaining activity (low = inhibition): at 100 µM (top of the series).

Activin receptor type-1 (Homo sapiens), sequence (Q04771 whole entry, looked up): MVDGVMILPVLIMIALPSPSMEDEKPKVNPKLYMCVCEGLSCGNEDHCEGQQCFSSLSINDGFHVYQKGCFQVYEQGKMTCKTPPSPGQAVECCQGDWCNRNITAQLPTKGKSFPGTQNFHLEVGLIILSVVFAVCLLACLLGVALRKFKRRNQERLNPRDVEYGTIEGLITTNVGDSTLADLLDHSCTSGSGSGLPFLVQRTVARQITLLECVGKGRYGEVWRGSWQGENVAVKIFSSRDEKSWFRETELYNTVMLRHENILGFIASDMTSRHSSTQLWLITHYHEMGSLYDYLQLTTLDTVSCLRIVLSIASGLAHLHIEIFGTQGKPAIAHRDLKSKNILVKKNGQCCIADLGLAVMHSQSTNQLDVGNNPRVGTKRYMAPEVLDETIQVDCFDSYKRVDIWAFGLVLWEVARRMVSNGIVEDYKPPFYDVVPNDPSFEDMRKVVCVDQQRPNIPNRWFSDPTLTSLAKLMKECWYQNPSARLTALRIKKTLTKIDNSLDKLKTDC

For the molecule `c1cc(N2CCOCC2)ccc1-c1cnc2c(-c3cn[nH]c3)cnn2c1`, the concentration for half-maximal inhibition (IC50) was 53 nM.
In the case of `COc1ccc(-c2cnc3c(-c4cccc5cccnc45)cnn3c2)cc1`, the “remaining activity (low = inhibition)” value was “inactive”.
For the molecule `COc1ccc(-c2cnc3c(-c4cn[nH]c4)cnn3c2)cc1`, the concentration for half-maximal inhibition (IC50) was 110 nM.
Still for that read-out and setting: next, `COc1ccc(-c2cnc3c(-c4ccnc5ncccc45)cnn3c2)cc1`: 121 nM.
Still for that read-out and setting: the result for `c1cc(N2CCNCC2)ccc1-c1cnc2c(-c3cn[nH]c3)cnn2c1` reads 43 nM.
Take `c1ccc2c(-c3cnn4cc(-c5ccc(N6CCOCC6)cc5)cnc34)ccnc2c1`: the remaining activity (low = inhibition) is 0.93.
Still for that read-out and setting: the result for `CN1CCN(c2ccc(-c3cnc4c(-c5ccnc6ccccc56)cnn4c3)cc2)CC1` reads -0.03.
`COc1ccc(-c2cnc3c(-c4ccnc5ccccc45)cnn3c2)cc1`: the half-inhibitory concentration (IC50) is 33 nM.
